Measurements reported in a compilation of properties of binary mixtures (doi:10.1039/c8ra04127j).

Experiment: xn = mol fraction of the nth substance listed
Conditions: 100 kPa

C[N+](C)(C)CCC[N+]1(C)CCCCC1.N#C[N-]C#N.N#C[N-]C#N + CC#N
viscosity [mPa·s]
Conditions	288.15 K	293.15 K	298.15 K	303.15 K	308.15 K	313.15 K	318.15 K	323.15 K	328.15 K	333.15 K
x1 = 0.0999	3.99	–	3.42	3.18	–	2.81	–	2.54	2.43	2.32
x1 = 0.2001	17.4	15.1	13.2	11.6	10.3	–	–	7.49	–	6.16
x1 = 0.3001	56.9	45.9	–	31.4	–	22.7	19.6	–	15.4	13.7
x1 = 0.3998	146	112	87.3	–	–	46.6	39.3	33.3	28.6	24.8
x1 = 0.5002	334	243	–	139	–	87	–	58.2	–	–
x1 = 0.6	679	466	322	246	185	145	114	–	–	62.3
x1 = 0.7001	1177	729	508	370	274	210	–	–	105	85.5
x1 = 0.7996	–	1390	900	623	449	329	246	193	152	122
x1 = 0.8998	3992	2477	1610	1085	760	–	400	303	233	–
x1 = 1	7553	–	–	1837	1224	856	–	460	350	270

CC#N + C[N+](C)(C)CCC[N+]1(C)CCCCC1.N#C[N-]C#N.N#C[N-]C#N
x2 = 0
Conditions	viscosity [mPa·s]
293.15 K	0.364
308.15 K	0.32
313.15 K	0.307
318.15 K	0.296
323.15 K	0.285
328.15 K	0.275
